Assay results taken from patent US9200046B2, “Reporter system for high throughput screening of compounds and uses thereof” (priority 2011, dated 2015).
Several values for one entry are separate records, joined by “and”; a condition that tells them apart may be missing. Equal entries are not always repeated. Structures can show the parent of a compound that is named as a salt. Where two headings read alike, the source gives them in different places.

Target: Nrf2-Keap1 complex (Homo sapiens, UniProt Q14145)
Assay: cell-based
Format: cell-based
Details: for activation at 16 µM / activation at 32 µM: 3 h; for activation at 16 µM: read-out: Activation 100 nL; for activation at 32 µM: read-out: Activation 200 nL
[1] = Table 1A, 100 nL compound, screen run at 16 and 32 μM, 3 hr
[2] = Table 1A, 200 nL compound, screen run at 16 and 32 μM, 3 hr
[3] = Table 2, 100 nL compound, screen run at 16 and 32 μM, 3 hr
[4] = Table 2, 200 nL compound, screen run at 16 and 32 μM, 3 hr

Chain of Nrf2-Keap1 complex (Q14145 whole entry, one chain of several): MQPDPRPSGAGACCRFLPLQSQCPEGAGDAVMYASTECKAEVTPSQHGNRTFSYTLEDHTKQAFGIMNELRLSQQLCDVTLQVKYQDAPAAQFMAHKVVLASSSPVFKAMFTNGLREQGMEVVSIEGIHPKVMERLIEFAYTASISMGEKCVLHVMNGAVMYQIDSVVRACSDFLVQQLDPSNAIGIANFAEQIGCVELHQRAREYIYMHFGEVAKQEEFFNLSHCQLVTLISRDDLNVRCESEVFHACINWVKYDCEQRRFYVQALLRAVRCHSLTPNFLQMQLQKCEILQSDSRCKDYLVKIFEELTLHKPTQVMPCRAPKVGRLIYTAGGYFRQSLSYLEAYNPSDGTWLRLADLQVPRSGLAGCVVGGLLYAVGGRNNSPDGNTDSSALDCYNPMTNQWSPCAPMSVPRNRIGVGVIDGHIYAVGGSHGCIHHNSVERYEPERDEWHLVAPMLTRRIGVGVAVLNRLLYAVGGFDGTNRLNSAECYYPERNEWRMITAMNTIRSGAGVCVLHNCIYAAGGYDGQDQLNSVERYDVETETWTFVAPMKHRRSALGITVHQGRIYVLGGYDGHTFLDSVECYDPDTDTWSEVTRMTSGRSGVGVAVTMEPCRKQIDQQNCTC

Compound | activation at 16 µM | activation at 32 µM | 100 nL (luminescence) [3] | 200 nL (luminescence) [4] | also measured
C[C@]12CCC(=O)C=C1C=C[C@@H]1[C@@H]2CC[C@@]2(C)[C@H]1CC[C@@]21CCC(=O)O1 [CANRENONE, reference compound] | 25% | 23% |  |  | 100 nL (luminescence): 900; 200 nL (luminescence): 832
COc1ccc2cc1Oc1ccc(cc1)C[C@H]1c3cc(c(OC)cc3CCN1C)Oc1c(OC)c(OC)cc3c1[C@H](C2)N(C)CC3 [TETRANDRINE] | 85% | 18% |  |  | 100 nL (luminescence) [1]: 1660; 200 nL (luminescence) [2]: 596
CO/N=C(\C(=O)N[C@@H]1C(=O)N2C(C(=O)O)=C(COC(C)=O)CS[C@H]12)c1csc(N)n1 [CEFOTAXIMESODIUM, reference compound] | 50% | 7% | 968 | 488 | 
CN1CCc2cccc3c2[C@H]1Cc1ccc(O)c(O)c1-3 [APOMORPHINEHYDROCHLORIDE, reference compound] | 44% | -3% | 880 | 266 | 
CCCCCCCCCCCCCCCc1ccco1 [AVOCADANOFURAN] |  |  | 880 | 1088 | Activation 100 nL: 59%; Activation 200 nL: 32%
CC(C)=CCC1=C(O)C(=O)c2ccccc2C1=O [LAPACHOL] | 47% | 24% |  |  | 
COc1ccc(C(=O)/C=C/c2ccccc2)cc1 [4′-METHOXYCHALCONE] | 134% | -15% | 2400 | 102 | 
CC(=O)O[C@H]1CC[C@]2(C)[C@H]3CC[C@@]4(C)[C@H](c5ccoc5)OC(=O)[C@H]5O[C@]54[C@]3(C)[C@H](OC(C)=O)C[C@H]2C1(C)C [3beta-ACETOXYDEOXODIHYDROGEDUNIN] |  |  | 924 | 972 | Activation 100 nL: 37%; Activation 200 nL: 42%
COc1cc(O)c(C(=O)/C=C/c2ccc(OC)c(O)c2)c(OC)c1 [2′,3-DIHYDROXY-4,4′,6′-TRIMETHOXYCHALCONE] | 296% | 10% | 5436 | 544 | 
CC1=C2C(=CO[C@H](C)[C@H]2C)C(O)=C(C(=O)O)C1=O [CITRININ] | 219% | 217% |  |  | 
COc1ccc(/C=C/C(=O)c2ccc(O)cc2O)cc1OC [2′,4′-DIHYDROXY-3,4-DIMETHOXYCHALCONE] | 321% | 185% | 5876 | 3964 | 
COc1ccc2c(c1)OCC(Cc1ccc(O)c(OC)c1)C2=O (stereo not drawn) |  |  |  |  | 100 nL (luminescence): 1416 and 900
CC(C)c1ccc2c(c1O)CC[C@H]1C3=C(CC[C@]21C)C(=O)OC3 [TRIPTOPHENOLIDE] | 35% | -3% | 832 | 390 | 
CC(=O)O[C@H]1CC[C@]2(C)C(C[C@@H](OC(C)=O)[C@]3(C)C4=CC(=O)O[C@H](c5ccoc5)[C@@]4(C)CCC23)C1(C)C (stereo partly drawn) [3-DEOXO-3beta-ACETOXYDEOXYDIHYDROGEDUNIN] |  |  | 1256 | 1252 | Activation 100 nL: 59%; Activation 200 nL: 61%
Nc1ncnc2c1ncn2C1O[C@H](COP(=O)(O)O)[C@@H](O)[C@H]1O (stereo partly drawn) [ADENOSINEPHOSPHATE, reference compound] | 27% | 14% |  |  | 100 nL (luminescence) [1]: 924; 200 nL (luminescence) [2]: 556
Nc1ncnc2c1ncn2[C@H]1C[C@H](O)[C@@H](CO)O1 [DEOXYADENOSINE] | 32% | -3% |  |  | 100 nL (luminescence): 788; 200 nL (luminescence): 390
AMSACRINEHYDROCHLORIDE [reference compound] |  |  |  |  | 100 nL (luminescence): 3384; 200 nL (luminescence): 1264; Activation 100 nL: 345%; Activation 200 nL: 40%
O=c1c(O)cccc2cc(O)c(O)c(O)c12 [PURPUROGALLIN] | 156% | 112% | 3508 | 2420 | 
COc1cc(/C=C/C(=O)CC(=O)/C=C/c2ccc(O)c(OC)c2)ccc1O [CURCUMIN] | 252% | -4% | 4208 | 264 | 
COc1ccc(/C=C/C(=O)c2cc(O)ccc2O)cc1 [2′,5′-DIHYDROXY-4-METHOXYCHALCONE] | 322% | 20% | 3188 | 800 | 
CC(C)CCCC1(C)C=Cc2c(O)c3c(c(CCC(C)C)c2O1)OC12C(CC4CC1C(C)(C)OC2(CCC(C)C(=O)O)C4O)C3=O (stereo not drawn) [DECAHYDROGAMBOGICACID] | 54% | 40% | 1184 | 936 | 

Compound | activation at 16 µM | activation at 32 µM | 100 nL (luminescence) [3] | 200 nL (luminescence) [4] | also measured
Cc1cc(O)ccc1Cl [CHLOROCRESOL] | 25% | -5% |  |  | 
Cc1c(O)c(O)cc2c1CC=C1[C@@]2(C)CC[C@@]2(C)[C@@H]3C[C@](C)(C(=O)O)CC[C@]3(C)CC[C@]12C [DIHYDROCELASTROL] | 62% | -16% | 1196 | 88 | hit strength in the screen (words): modest hit
COC(=O)/C=C/C(C)=C\C=C\C(C)=C\C=C\C=C(C)\C=C\C=C(C)\C=C\C(=O)O [BIXIN] | 113% | 113% |  |  | 100 nL (luminescence): 1880; 200 nL (luminescence): 3036
COc1ccc(-c2oc3cc(O[C@@H]4O[C@H](CO)[C@@H](O)[C@H](O)[C@H]4O)c(OC)c(O)c3c(=O)c2OC)cc1O [CENTAUREIN] | 41% | 19% | 916 | 876 | 
COc1c(O)cc2oc3cc(O)c(CC=C(C)C)c(O)c3c(=O)c2c1CC=C(C)C [alpha-MANGOSTIN] |  |  |  |  | 100 nL (luminescence): 736; 200 nL (luminescence): 16; Activation 100 nL: 28%; Activation 200 nL: −19%
Cc1cccc2c3c(ccc12)C1=C(C(=O)C3=O)[C@@H](C)CO1 [DIHYDROTANSHINONEI] | 158% | 5% | 2480 | 572 | 
CC1(C)C(C(Cl)Cl)C2(Cl)C(Cl)C(Cl)C1(Cl)C2(Cl)Cl (stereo not drawn) [TOXAPHENE] | 395% | 226% | 5648 | 5632 | 
CC1(C)[N+]([O-])=[N+]([O-])C1(C)Br (stereo not drawn) |  |  | 1308 | 1976 | Activation 100 nL: 55%; Activation 200 nL: 83%
O=C1C=C2C=C[C@@H]3C[C@@]2(O1)[C@H]1CCCCN31 [SECURININE] | 84% | -14% | 2068 | 176 | 
CC(=O)O[C@H]1C[C@@H](O)C(C)(C)[C@@H]2C[C@@H](OC(C)=O)[C@]3(C)[C@H](CC[C@@]4(C)[C@@H](c5ccoc5)OC(=O)[C@H]5O[C@@]534)[C@@]12C [3-DEACETYLKHIVORIN] |  |  | 1628 | 2102 | Activation 100 nL: 94%; Activation 200 nL: 72%
O=C1c2ccccc2C(=O)c2c(O)c(O)cc(O)c21 [PURPURIN] | 54% | 41% | 1176 | 952 | 
C=C(C)[C@@H]1CC[C@]2(C(=O)O)CC[C@]3(C)[C@H](CC[C@@H]4[C@@]5(C)CC[C@H](O)C(C)(C)[C@@H]5CC[C@]43C)[C@@H]12 [BETULINICACID] | 54% | 85% |  |  | 
CC(=O)[O-].CC(=O)[O-].[Cd+2] [CADMIUMACETATE] |  |  | 992 | 312 | Activation 100 nL: 47%; Activation 200 nL: −6%
C=C1C[C@@H]2[C@H](CC[C@]3(C)C(=O)CC[C@@H]23)[C@@]2(C)C=CC(=O)C=C12 [EXEMESTANE, reference compound] | 261% | 220% | 4836 | 4668 | 
C[C@@H]1C[C@H]2[C@@H]3CCC4=CC(=O)C=C[C@]4(C)[C@@]3(Cl)[C@@H](O)C[C@]2(C)[C@@]1(OC(=O)c1ccco1)C(=O)CCl [MOMETASONEFUROATE, reference compound] | 56% | 140% | 1508 | 2936 | 
O=c1c(-c2ccc(O)cc2)coc2cc(O)cc(O)c12 [GENISTEIN] | 106% | 93% | 1980 | 1748 | 
CC1=C(CC(=O)O)c2cc(F)ccc2/C1=C\c1ccc([S+](C)[O-])cc1 (stereo not drawn) [reference compound] | 114% | 188% |  |  | Neh2-luc reporter activation: 200%; 100 nL (luminescence) [1]: 2692; 200 nL (luminescence) [2]: 2710
COC1=CC(=O)C(C(=O)c2ccccc2)=CC1=O [2-BENZOYL-5-METHOXYBENZOQUINONE] | 72% | 83% | 994 | 2280 | 
CCOP(=S)(OCC)Oc1nc(Cl)c(Cl)cc1Cl [CHLORPYRIFOS] | 90% | 55% | 1572 | 1704 | 
O=c1c(O)c(-c2ccc(O)cc2)oc2cc(O)cc(O)c12 [kaempferol, 3,5,7,4′-tetrahydroxyflavone] |  |  |  |  | fold less effective than quercetin and fisetin (flavone SAR): 2.5 fold
O=c1c(O)c(-c2ccccc2)oc2ccccc12 [3-Hydroxyflavone] |  |  |  |  | hit strength in the screen (words): modest Nrf2 activator
